Measurements taken from patent US9539256B2 (THE BOARD OF REGENTS OF THE UNIVERSITY OF TEXAS SYSTEM, priority 2012, dated 2017).
“Also recorded” adds a separate entry of the source.

Columns and labels:
[1] = In vivo pharmacokinetic study, blood time-concentration curve; conditions: single IP injection 10 mg/kg, mice
Method: FIG. 19. Mice blood time-concentration curve of ESI-09.
To determine the bioavailability of EPAC inhibitors, an IP injection formulation was developed in which the compounds were dissolved in ethanol and then diluted 1:10 with a 10% Tween 80 in normal saline solution. This formulation was determined suitable by passing the simulated in vivo blood dilution assay. In vivo pharmacokinetic studies were performed in four week old female C57BL6/N mice.

[2] = test system: AsPC-1, BxPC-3, and PANC-1; assay: Transwell migration/invasion assay; assay type: cell-based; conditions: pretreated with 10.0 μM for 24 hours; AsPC-1, BxPC-3, PANC-1
Method: The top chamber of 8 micron inserts (Costar Inc) were coated with BD Matrigel™ Basement Membrane Matrix ([…]). Cells (2×10^5) pretreated with 10.0 μM of ESI-09 for 24 hours were added to the top chamber of the inserts in serum free RPMI medium containing 0.25% BSA. The bottom chamber was filled with 600.0 μL of RPMI containing 10% FBS and 10.0 μM ESI-09. The cells were then incubated at 37° C. in 5% CO2 for 20 hours. Cells were removed from the top chamber and migrated cells were fixed in methanol and stained with crystal violet. The number of migrated cells were counted from four different fields.

type I PKA holoenzyme = assay: PKA counter screening, type I holoenzyme; assay type: biochemical; conditions: 25 μM compound
Method: Kinase activity of the type I and II PKA holoenzyme are measured spectrophotometrically in a 96-well plate with a coupled enzyme assay as described previously (Cook et al. (1982) Biochemistry 21: 5794-5799). In this assay, the formation of ADP is coupled to the oxidation of NADH by the pyruvate kinase/lactate dehydrogenase reactions so the reaction rate can be determined by following the oxidation of NADH, reflected by a decrease in absorbance at 340 nm. […] Reactions are pre-equilibrated at room temperature and initiated by adding the Kemptide substrate (final concentration 0.26 mM).

[3] = test system: OVA-specific IgG1 antibodies; assay: Oral ovalbumin immunization, serum OVA-IgG1; assay type: in vivo; conditions: WT mice, oral gavage 50 mg/kg, versus vehicle
EPAC1 = target: T1, EPAC1 (Homo sapiens, UniProt O95398); assay: Rap1-GDP exchange (GEF) activity assay, EPAC1
T1 sequence (O95398 1-923): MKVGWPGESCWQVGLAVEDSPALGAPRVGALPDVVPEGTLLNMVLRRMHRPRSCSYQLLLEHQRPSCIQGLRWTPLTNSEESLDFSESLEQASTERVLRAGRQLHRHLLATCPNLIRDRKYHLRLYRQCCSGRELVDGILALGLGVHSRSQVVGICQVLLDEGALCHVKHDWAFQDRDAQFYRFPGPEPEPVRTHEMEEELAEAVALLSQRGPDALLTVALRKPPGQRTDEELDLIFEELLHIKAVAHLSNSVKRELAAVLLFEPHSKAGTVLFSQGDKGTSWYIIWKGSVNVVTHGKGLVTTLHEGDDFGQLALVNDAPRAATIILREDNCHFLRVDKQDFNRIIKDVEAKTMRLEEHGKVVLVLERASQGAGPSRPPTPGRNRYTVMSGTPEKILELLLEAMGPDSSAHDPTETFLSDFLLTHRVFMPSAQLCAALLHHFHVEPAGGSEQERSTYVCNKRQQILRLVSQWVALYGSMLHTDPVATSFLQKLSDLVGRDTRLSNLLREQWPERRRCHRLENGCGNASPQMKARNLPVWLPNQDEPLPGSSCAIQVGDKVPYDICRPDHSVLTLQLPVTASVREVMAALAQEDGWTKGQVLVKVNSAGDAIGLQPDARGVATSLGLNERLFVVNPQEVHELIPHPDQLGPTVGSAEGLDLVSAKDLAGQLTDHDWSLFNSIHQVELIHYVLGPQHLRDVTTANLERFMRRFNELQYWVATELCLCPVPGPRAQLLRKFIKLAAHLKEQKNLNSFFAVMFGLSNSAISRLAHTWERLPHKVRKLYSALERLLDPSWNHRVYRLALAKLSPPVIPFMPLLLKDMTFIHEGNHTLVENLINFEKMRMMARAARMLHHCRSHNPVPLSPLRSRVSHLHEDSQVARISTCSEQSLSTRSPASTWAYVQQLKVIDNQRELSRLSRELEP

CC(C)(C)c1cc(C(=O)C(C#N)=NNc2cccc(Cl)c2)no1 [ESI-09, 3-(5-Tert-Butyl-Isoxazol-3-Yl)-2-[(3-Chlorophenyl)-Hydrazono]-3-Oxo-Propionitrile]
half-life ([1]; female, C57BL6/N, mouse, whole blood): 3.5 h
blood levels, maximal values [1]: 42,520 ng/ml
time of maximal blood level [1]: 0.5 h
cell migration, trans-well migration/invasion [2]: significant decrease; also recorded: significantly (P<0.05) decreased
cAMP-induced type I PKA holoenzyme activation (type I PKA holoenzyme): did not significantly alter
serum OVA-specific IgG1 antibodies [3]: significantly higher; also recorded: increases
IC50 (EPAC1): 3.2 µM
